Residues, ends and D or L forms follow the SMILES beside them.
What follows are compounds tested against T1, human LAG3/FGL1 interaction (Homo sapiens, UniProt P18627) (assay: Human LAG3/FGL1 TR-FRET Binding Assay (BPS Bioscience)). Conditions: peptides tested at 100, 33, and 11 μM; 1 hr at RT; read-out: IC50 in LAG3:FLG1 TR-FRET Assay.
T1 construct: purchased BPS Bioscience
T1 sequence (P18627 23-450 limits assumed): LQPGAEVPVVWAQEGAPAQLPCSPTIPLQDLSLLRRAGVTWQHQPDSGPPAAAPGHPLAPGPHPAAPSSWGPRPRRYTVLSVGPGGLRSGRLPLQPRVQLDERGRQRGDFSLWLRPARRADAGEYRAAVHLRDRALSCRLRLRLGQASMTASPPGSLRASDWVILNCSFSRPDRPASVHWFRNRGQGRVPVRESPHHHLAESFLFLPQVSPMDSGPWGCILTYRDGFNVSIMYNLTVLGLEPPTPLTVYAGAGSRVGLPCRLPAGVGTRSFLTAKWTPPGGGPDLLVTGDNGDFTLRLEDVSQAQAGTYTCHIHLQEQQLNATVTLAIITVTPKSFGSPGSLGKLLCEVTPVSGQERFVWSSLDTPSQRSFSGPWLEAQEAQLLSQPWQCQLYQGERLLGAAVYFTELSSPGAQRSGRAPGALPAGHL
Experimental: This example tested the ability of peptides to inhibit the interaction between human LAG3 and FGL1. The peptides were tested using a Human LAG3/FGL1 TR-FRET Binding Assay (BPS Bioscience) carried out according to the manufacturer's instructions.
Peptides 6, 41, 68, 69, 115, 146, 154, and 155 were tested at 100, 33, and 11 μM. Peptide LG56 ([…]; SEQ ID NO:14) served as a peptide positive control. Peptide 93 (SEQ ID NO:15) served as a negative or low activating peptide control. A neutralizing anti-human LAG3 antibody (BPS Bioscience Cat. #71219) was used as an antibody positive control.
Reaction mixes were incubated 1 hr at RT before development. After development, plate was read in a Tecan M1000 TR-FRET instrument.

Point of comparison: CSCC[C@H](NC(=O)[C@@H](NC(=O)[C@H](CCC(=O)O)NC(=O)[C@H](CC(C)C)NC(=O)[C@@H](NC(=O)[C@H](CCC(N)=O)NC(=O)[C@H](CCC(=O)O)NC(=O)[C@H](CCCNC(=N)N)NC(=O)[C@H](CC(N)=O)NC(=O)[C@H](Cc1c[nH]cn1)NC(=O)[C@@H](N)CCC(=O)O)C(C)C)C(C)C)C(=O)N[C@@H](Cc1ccc(O)cc1)C(=O)N[C@@H](CO)C(=O)N[C@@H](Cc1ccccc1)C(=O)N[C@@H](CCC(N)=O)C(=O)N[C@H](C(=O)N[C@@H](CC(N)=O)C(=O)N[C@@H](CC(=O)O)C(=O)N[C@@H](Cc1ccc(O)cc1)C(=O)N[C@@H](Cc1ccccc1)C(=O)O)C(C)C [Peptide 154] (H-EHNREQVLEVMYSFQVNDYF-OH; N-terminus and C-terminus assumed), IC50 7.2 µM. Against it:
- CC[C@H](C)[C@H](NC(=O)[C@H](C)NC(=O)CNC(=O)[C@H](C)NC(=O)[C@H](CC(N)=O)NC(=O)[C@@H]1CCCN1C(=O)[C@H](Cc1ccc(O)cc1)NC(=O)[C@H](CCC(N)=O)NC(=O)[C@H](CCCCN)NC(=O)[C@H](CCC(N)=O)NC(=O)[C@@H](NC(=O)[C@H](CCC(N)=O)NC(=O)[C@H](CCC(=O)O)NC(=O)[C@H](CCCCN)NC(=O)[C@@H](NC(=O)[C@@H]1CCCN1C(=O)[C@H](C)NC(=O)[C@@H]1CCCN1C(=O)[C@@H](NC(=O)[C@@H](N)CCCNC(=N)N)C(C)C)C(C)C)C(C)C)C(=O)O [Low Activity Peptide, reference compound] (H-RVPAPVKEQVQKQYPNAGAI-OH; N-terminus and C-terminus assumed) — higher, > 100 µM
- CC[C@H](C)[C@H](NC(=O)[C@H](CC(=O)O)NC(=O)[C@H](CC(=O)O)NC(=O)[C@H](C)NC(=O)[C@H](Cc1ccc(O)cc1)NC(=O)[C@H](CC(C)C)NC(=O)[C@H](CCCNC(=N)N)NC(=O)[C@@H](NC(=O)[C@H](CCC(=O)O)NC(=O)[C@H](CCCCN)NC(=O)[C@H](CCC(=O)O)NC(=O)[C@H](CC(=O)O)NC(=O)[C@H](Cc1c[nH]c2ccccc12)NC(=O)[C@H](CC(=O)O)NC(=O)[C@H](CCSC)NC(=O)[C@H](CCCNC(=N)N)NC(=O)[C@H](Cc1ccccc1)NC(=O)[C@@H](N)C(C)C)C(C)C)C(=O)N[C@@H](CC(C)C)C(=O)N[C@@H](CC(C)C)C(=O)O [Peptide 146] (H-VFRMDWDEKEVRLYADDILL-OH; N-terminus and C-terminus assumed) — the same, 7.2 µM

— patent publication US11578102B2, “LAG3 binding peptides” (Leidos, Inc., priority 2020, dated 2023)
